Source: ChEMBL document CHEMBL5532755, “Unveiling the potent activity of a synthetic ion transporter against multidrug-resistant Gram-positive bacteria and biofilms” (RSC Med Chem, 2024)
In brackets after ≈: the same amount, converted by molar mass. Activity calls are given as the source filed them. No cut-off for these calls is given here.

How the values were obtained:
Staphylococcus aureus [1] = assay: Antibacterial activity against Staphylococcus aureus MTCC 737 incubated for 16 to 18 hrs by broth dilution method; type: functional; settings: time 16-18 hrs
[2] = system: Staphylococcus epidermidis; assay: Antibacterial activity against Staphylococcus epidermidis MTCC 3615 incubated for 16 to 18 hrs by broth dilution method; type: functional; settings: time 16-18 hrs
Enterococcus faecium [3] = assay: Antibacterial activity against Enterococcus faecium ATCC 19634 incubated for 16 to 18 hrs by broth dilution method; type: functional; settings: time 16-18 hrs
Staphylococcus aureus [4] = assay: Antibacterial activity against methicillin-resistant Staphylococcus aureus ATCC 33591 incubated for 16 to 18 hrs by broth dilution method; type: functional; settings: time 16-18 hrs
Staphylococcus aureus [5] = assay: Antibacterial activity against methicillin-resistant Staphylococcus aureus R3545 incubated for 16 to 18 hrs by broth dilution method; type: functional; settings: time 16-18 hrs
Staphylococcus aureus [6] = assay: Antibacterial activity against methicillin-resistant Staphylococcus aureus R3890 incubated for 16 to 18 hrs by broth dilution method; type: functional; settings: time 16-18 hrs
Staphylococcus aureus [7] = assay: Antibacterial activity against methicillin-resistant Staphylococcus aureus R3889 incubated for 16 to 18 hrs by broth dilution method; type: functional; settings: time 16-18 hrs
Staphylococcus aureus [8] = assay: Antibacterial activity against vancomycin-resistant Staphylococcus aureus 1 incubated for 16 to 18 hrs by broth dilution method; type: functional; settings: time 16-18 hrs
Staphylococcus aureus [9] = assay: Antibacterial activity against vancomycin-resistant Staphylococcus aureus 4 incubated for 16 to 18 hrs by broth dilution method; type: functional; settings: time 16-18 hrs
Enterococcus faecium [10] = assay: Antibacterial activity against vancomycin-resistant Enterococcus faecium 903 incubated for 16 to 18 hrs by broth dilution method; type: functional; settings: time 16-18 hrs
Enterococcus faecium [11] = assay: Antibacterial activity against vancomycin-resistant Enterococcus faecium 909 incubated for 16 to 18 hrs by broth dilution method; type: functional; settings: time 16-18 hrs
Escherichia coli = assay: Antibacterial activity against Escherichia coli MTCC 443 incubated for 16 to 18 hrs by broth dilution method; type: functional; settings: time 16-18 hrs
[12] = Hemolytic activity in human RBC incubated for 1 hr by microplate reader method; type: toxicity, cell-based, Erythrocyte; settings: human red blood cells (erythrocytes)
[13] = Cytotoxicity against MDCK cells assessed as cell viability incubated for 24 hrs by alamar blue staining based assay; type: toxicity, Canis lupus familiaris; settings: dog
Staphylococcus aureus [14] = assay: Bactericidal activity against methicillin-resistant Staphylococcus aureus ATCC 33591 assessed as eradication of bacterial cells at 8 ug/ml observed within 12 hrs by time killing analysis relative to control; type: functional; settings: dose 8 µg/ml
Staphylococcus aureus [15] = assay: Bactericidal activity against methicillin-resistant Staphylococcus aureus ATCC 33591 assessed as log reduction in bacterial titer at 8 ug/ml observed within 12 hrs by time killing analysis; type: functional; settings: dose 8 µg/ml
Staphylococcus aureus [16] = assay: Bactericidal activity against vancomycin-resistant Staphylococcus aureus 1 assessed as log reduction in bacterial titer at 8 ug/ml observed after 12 hrs by time killing analysis; type: functional; settings: dose 8 µg/ml
Staphylococcus aureus [17] = assay: Bactericidal activity against vancomycin-resistant Staphylococcus aureus 1 assessed as reduction in bacterial count at 16 ug/ml observed after 12 hrs by time killing analysis; type: functional; set-up: scale not given: the % may be the effect or the level left; settings: dose 16 µg/ml
Staphylococcus aureus [18] = assay: Antibiofilm activity against methicillin-resistant Staphylococcus aureus ATCC 33591 assessed as reduction in biofilm biomass at 32 ug/ml incubated for 24 hrs by crystal violet staining based analysis relative to control; type: functional; set-up: scale not given: the % may be the effect or the level left; settings: dose 32 µg/ml
Staphylococcus aureus [19] = assay: Antibiofilm activity against methicillin-resistant Staphylococcus aureus ATCC 33591 assessed as reduction in biofilm biomass at 64 ug/ml incubated for 24 hrs by crystal violet staining based analysis relative to control; type: functional; set-up: scale not given: the % may be the effect or the level left; settings: dose 64 µg/ml
Staphylococcus aureus [20] = assay: Antibiofilm activity against methicillin-resistant Staphylococcus aureus ATCC 33591 assessed as log reduction in bacterial burden in biofilm at 32 ug/ml incubated for 18 hrs; type: functional; settings: dose 32 µg/ml
Staphylococcus aureus [21] = assay: Antibiofilm activity against methicillin-resistant Staphylococcus aureus ATCC 33591 assessed as log reduction in bacterial burden in biofilm at 64 ug/ml incubated for 18 hrs; type: functional; settings: dose 64 µg/ml
Staphylococcus aureus [22] = assay: Antibiofilm activity against methicillin-resistant Staphylococcus aureus ATCC 33591 assessed as biofilm thickness at 64 ug/ml by Syto-9/PI staining based confocal laser scanning microscopy; type: functional; settings: dose 64 µg/ml
Cell membrane [23] = assay: Induction of cytoplasmic membrane depolarization in methicillin-resistant Staphylococcus aureus ATCC 33591 assessed as increase in fluorescence intensity measured after 24 min by DiSC3-5 dye based fluorescence method; settings: dose 4-16 µg/ml
Cell membrane [24] = assay: Induction of cytoplasmic membrane depolarization in vancomycin-resistant Staphylococcus aureus 1 assessed as increase in fluorescence intensity and measured after 24 min by DiSC3-5 dye based fluorescence method; settings: dose 4-16 µg/ml
Cell membrane [25] = assay: Induction of inner membrane permeabilization in methicillin-resistant Staphylococcus aureus ATCC 33591 assessed as appearance of dead bacterial cells with compromised membrane integrity at 16 ug/ml incubated for 4 hrs by Syto-9/PI staining based confocal microscopy; type: cell membranes; settings: dose 16.0 µg/ml
Staphylococcus aureus [26] = assay: Induction of ROS generation in methicillin-resistant Staphylococcus aureus ATCC 33591 assessed as increase in fluorescence intensity by DCFH-DA dye based flow cytometry analysis; type: functional, organism-based; settings: dose 8-16 µg/ml
Staphylococcus aureus [27] = assay: Induction of resistance development in methicillin-resistant Staphylococcus aureus ATCC 33591 measured after 10 days by broth dilution method; type: functional; settings: time 10.0 day
Cell membrane [28] = assay: Induction of membrane depolarization in methicillin-resistant Staphylococcus aureus ATCC 33591 assessed as depolarized bacterial cells by measuring green fluorescence at 8 ug/ml incubated for 4 hrs by DiOC2(3) dye based flow cytometry analysis (reference value: 27.3%); type: cell membranes; settings: dose 8.0 µg/ml
Cell membrane [29] = assay: Induction of membrane depolarization in methicillin-resistant Staphylococcus aureus ATCC 33591 assessed as depolarized bacterial cells by measuring red fluorescence at 8 ug/ml incubated for 4 hrs by DiOC2(3) dye based flow cytometry analysis (reference value: 63.8%); type: cell membranes; settings: dose 8.0 µg/ml
Cell membrane [30] = assay: Induction of membrane depolarization in methicillin-resistant Staphylococcus aureus ATCC 33591 assessed as depolarized bacterial cells by measuring red to green fluorescence ratio at 8 ug/ml incubated for 4 hrs by DiOC2(3) dye based flow cytometry analysis; type: cell membranes; settings: dose 8.0 µg/ml
[31] = Cytotoxicity against MDCK cells assessed as cell viability at 0.5 to 4 ug/ml incubated for 24 hrs by alamar blue assay relative to control; type: toxicity, cell-based, Canis lupus familiaris; settings: dog, at 0.5 to 4 µg/mL, dose 0.5-4 µg/ml, read-out: Activity
[32] = Selectivity index, ratio of HC50 for hemolytic activity in human RBC to MIC for antibacterial activity against Staphylococcus aureus; type: toxicity; settings: human red blood cells (erythrocytes), read-out: Selectivity Index
[33] = Selectivity index, ratio of HC50 for hemolytic activity in human RBC to MIC for antibacterial activity against Staphylococcus epidermidis; type: toxicity; settings: human red blood cells (erythrocytes), read-out: Selectivity Index
[34] = Selectivity index, ratio of HC50 for hemolytic activity in human RBC to MIC for antibacterial activity against Enterococcus faecium; type: toxicity; settings: human red blood cells (erythrocytes), read-out: Selectivity Index
[35] = Selectivity index, ratio of HC50 for hemolytic activity in human RBC to MIC for antibacterial activity against methicillin-resistant Staphylococcus aureus ATCC 33591; type: toxicity; settings: human red blood cells (erythrocytes), read-out: Selectivity Index
[36] = Selectivity index, ratio of HC50 for hemolytic activity in human RBC to MIC for antibacterial activity against methicillin-resistant Staphylococcus aureus R3545; type: toxicity; settings: human red blood cells (erythrocytes), read-out: Selectivity Index
[37] = Selectivity index, ratio of HC50 for hemolytic activity in human RBC to MIC for antibacterial activity against methicillin-resistant Staphylococcus aureus R3890; type: toxicity; settings: human red blood cells (erythrocytes), read-out: Selectivity Index
[38] = Selectivity index, ratio of HC50 for hemolytic activity in human RBC to MIC for antibacterial activity against methicillin-resistant Staphylococcus aureus R3889; type: toxicity; settings: human red blood cells (erythrocytes), read-out: Selectivity Index
[39] = Selectivity index, ratio of HC50 for hemolytic activity in human RBC to MIC for antibacterial activity against vancomycin-resistant Staphylococcus aureus 1; type: toxicity; settings: human red blood cells (erythrocytes), read-out: Selectivity Index
[40] = Selectivity index, ratio of HC50 for hemolytic activity in human RBC to MIC for antibacterial activity against vancomycin-resistant Staphylococcus aureus 4; type: toxicity; settings: human red blood cells (erythrocytes), read-out: Selectivity Index
[41] = Selectivity index, ratio of HC50 for hemolytic activity in human RBC to MIC for antibacterial activity against vancomycin-resistant Enterococcus faecium 903; type: toxicity; settings: human red blood cells (erythrocytes), read-out: Selectivity Index
[42] = Selectivity index, ratio of HC50 for hemolytic activity in human RBC to MIC for antibacterial activity against vancomycin-resistant Enterococcus faecium 909; type: toxicity; settings: human red blood cells (erythrocytes), read-out: Selectivity Index
[43] = Hemolytic activity in human RBC at 0.5 to 2 ug/ml incubated for 1 hr by microplate reader method relative to control; type: toxicity, cell-based, Erythrocyte; settings: human red blood cells (erythrocytes), at 0.5 to 2 µg/mL, dose 0.5-2 µg/ml, read-out: Activity
Staphylococcus aureus [44] = assay: Antibiofilm activity against methicillin-resistant Staphylococcus aureus ATCC 33591 assessed as eradication of bacteria by measuring colocalization of green and red cells at 64 ug/ml by Syto-9/PI staining based confocal laser scanning microscopy; type: functional, organism-based; settings: dose 64.0 µg/ml
Staphylococcus aureus [45] = assay: Induction of resistance development in methicillin-resistant Staphylococcus aureus ATCC 33591 assessed as fold increase in MIC measured after 3 days by broth dilution method relative to control; type: functional; settings: time 3.0 day
Staphylococcus aureus [46] = assay: Induction of resistance development in methicillin-resistant Staphylococcus aureus ATCC 33591 assessed as fold increase in MIC measured after 5 days by broth dilution method relative to control; type: functional; settings: time 5.0 day
Staphylococcus aureus [47] = assay: Induction of resistance development in methicillin-resistant Staphylococcus aureus ATCC 33591 assessed as fold increase in MIC measured after 10 days by broth dilution method relative to control; type: functional; settings: time 10.0 day

Molecule `CCCCNc1nc(NCCCC)nc(N2CC3CC(C2)CN(c2nc(NCCCC)nc(NCCCC)n2)C3)n1` has an MIC (Staphylococcus aureus [1]) of 0.5 µg/mL (≈ 0.879 µM), an MIC [2] of 4 µg/mL (≈ 7.03 µM) and an MIC (Enterococcus faecium [3]) of 0.25 µg/mL (≈ 0.44 µM). The MIC (Staphylococcus aureus [4]) was 0.5 µg/mL (≈ 0.879 µM), the MIC (Staphylococcus aureus [5]) was 0.5 µg/mL (≈ 0.879 µM) and the MIC (Staphylococcus aureus [6]) was 0.5 µg/mL (≈ 0.879 µM). It also gave an MIC (Staphylococcus aureus [7]) of 0.5 µg/mL (≈ 0.879 µM), an MIC (Staphylococcus aureus [8]) of 0.5 µg/mL (≈ 0.879 µM) and an MIC (Staphylococcus aureus [9]) of 0.5 µg/mL (≈ 0.879 µM). The MIC (Enterococcus faecium [10]) was 1 µg/mL (≈ 1.76 µM), the MIC (Enterococcus faecium [11]) was 1 µg/mL (≈ 1.76 µM) and the MIC (Escherichia coli) was 64 µg/mL (≈ 113 µM). It also gave an HC50 at 1 h [12] of 810 µg/mL, an EC50 at 24 h [13] of 21 µg/mL (≈ 36.9 µM) and an Activity (Staphylococcus aureus [14]) of 100%. For the same molecule, the “log(activity)” value (Staphylococcus aureus [15]) was over 5, the “log(activity)” value (Staphylococcus aureus [16]) was 3.5 and the Activity (Staphylococcus aureus [17]) was 100%. For the same molecule, the Activity (Staphylococcus aureus [18]) was 50%, the Activity (Staphylococcus aureus [19]) was 40% and the “log(activity)” value (Staphylococcus aureus [20]) was 1.7. The “log(activity)” value (Staphylococcus aureus [21]) was about 2, the Activity (Staphylococcus aureus [22]) was 3 um and the Activity (Cell membrane [23]) was “Dose-Dependent Effect”. The Activity (Cell membrane [24]) was “Dose-Dependent Effect”, the Activity (Cell membrane [25]) was “Active” and the Activity (Staphylococcus aureus [26]) was “Dose-Dependent Effect”. For the same molecule, the Activity (Staphylococcus aureus [27]) was “inactive”, the Activity (Cell membrane [28]) was 43.2% and the Activity (Cell membrane [29]) was 47.8%. For the same molecule, the Ratio (Cell membrane [30]) was 1.1, the viability at 24 h [31] was over 95% and the selectivity ratio [32] was 400. The selectivity ratio [33] was 400, the selectivity ratio [34] was 400 and the selectivity ratio [35] was 800. For the same molecule, the selectivity ratio [36] was 800, the selectivity ratio [37] was 800 and the selectivity ratio [38] was 800. The selectivity ratio [39] was 800, the selectivity ratio [40] was 800 and the selectivity ratio [41] was 800. The selectivity ratio [42] was 800, the hemolysis at 1 h [43] was 0% and the Activity (Staphylococcus aureus [44]) was “Active”.

For `CC(=O)NC[C@H]1CN(c2ccc(N3CCOCC3)c(F)c2)C(=O)O1` [LINEZOLID], the MIC [2] was 2 µg/mL (≈ 5.93 µM), the MIC (Enterococcus faecium [3]) was 4 µg/mL (≈ 11.9 µM) and the MIC (Staphylococcus aureus [8]) was 1 µg/mL (≈ 2.96 µM). The MIC (Staphylococcus aureus [9]) was 1 µg/mL (≈ 2.96 µM), the MIC (Enterococcus faecium [10]) was 32 µg/mL (≈ 94.9 µM) and the MIC (Enterococcus faecium [11]) was 2 µg/mL (≈ 5.93 µM).

For `CC(=O)O[C@H]1C[C@@]2(C)[C@@H](C[C@@H](O)[C@H]3[C@@]4(C)CC[C@@H](O)[C@@H](C)[C@@H]4CC[C@@]32C)/C1=C(\CCC=C(C)C)C(=O)O`, the fold change (FC) (Staphylococcus aureus [45]) was 32, the fold change (FC) (Staphylococcus aureus [46]) was 128 and the fold change (FC) (Staphylococcus aureus [47]) was 4000.
